# Where “and” joins values, the source holds several entries; their conditions need not be identical. Equal entries are not always repeated. Entries after “also recorded” stand apart in the source; their conditions may differ. Structures can show the parent of a compound that is named as a salt. Where two headings read alike, the source gives them in different places.
# Columns and labels:
# [1] = tested on: formalin pain in the mouse; assay: Formalin paw lick analgesic test; type: in vivo; details: mice, i.p., 15 mg/kg
# Method: Male CD-1 mice (Charles River laboratories, Wilmington, Mass.) weighing 20-25 g were used for the formalin test. Mice were injected intraperitoneally with the test compound dissolved in DMSO or with vehicle. Five minutes later 20 μl of 1% formalin was injected into the hind paw of each mouse. The time spent licking the injected paw was monitored for 25 minutes. The early phase of response was between 0-5 minutes and the late phase response was defined as the response between 5-25 minutes.
# [2] = tested on: NMDA-induced seizure and death in mice; assay: NMDA-induced seizure and death (100 mg/kg NMDA challenge); type: in vivo; details: steroid 25 mg/kg i.p., DMSO 50%
# Method: 5β3αHS (25 mg/kg, i.p.) protects mice from NMDA-induced death. None of the steroids tested altered the latency to NMDA-induced seizure. However, 100% of the animals that received 5β3αHS survived the 100 mg/kg NMDA challenge compared to 50% for DMSO, 75% for 5β3αS and E2 (3)HS, and 50% for E2 (17)HS.
# kainate receptors = assay: Whole cell patch clamp, kainate-induced current in cultured chick spinal cord neurons; type: cell-based; details: 100 μM steroid; -70 mV; sulfate
# Method: (§1) Cultures of dissociated spinal cord neurons were prepared as previously described (Farb, D. H., et al., J. Cell Biol., 80:651-661 (1979)). Briefly, the dissociated cells from 7-day chick embryos were plated on collagen-coated 35-mm tissue culture dishes in Eagle's minimum essential medium supplemented with 2.4 mM glutamine, 10% (v/v) heat-inactivated horse serum, 5% (v/v) chick embryo extract and antibiotics. Cultures were maintained in a humidified atmosphere of 5% CO2, 95% air at 37°. Cytarabine (1 μM) was added to the culture medium after 36 hr. of the initial plating to inhibit the proliferation of non-neuronal cells. One day later, this medium was replaced with a similar medium supplemented with 20.5 mM glucose, 19 mM KCl, and 2.5% chick embryo extract. Fresh medium was added twice weekly. Cultured neurons were used in experiments within 2-4 weeks after plating.
# (§2) Experiments were carried out in 35-mm tissue culture dishes on the stage of an inverted phase contrast microscope. Whole cell currents were recorded by the whole cell variant of the patch clamp technique (Hamill, O. P., et al., Pfagers Arch. 891:85-100 (1981)). Patch electrodes had tip openings of about […] and resistances of 3-8 M.OMEGA. using an intracellular solution comprised of the following (in mM): 140 CsCl, 11 EGTA, and 10 HEPES (pH adjusted to 7.2 with CsOH). […]
# AMPA receptors = assay: Whole cell patch clamp, AMPA-induced current in cultured chick spinal cord neurons; type: cell-based; details: 100 μM steroid; -70 mV; sulfate
# Method: as §1, §2
# [3] = tested on: glutamate receptor-mediated spontaneous EPSCs in rat hippocampal neurons; assay: Spontaneous excitatory postsynaptic currents (EPSCs), whole-cell recording in cultured hippocampal neurons; type: cell-based; details: for effect on spontaneous EPSCs: cultures of rat hippocampal neurons; for EC50: voltage-clamped at -70 mV, read-out: EC50 of EPSC potentiation
# Method: Primary cultures of hippocampal neurons were prepared from embryonic day 18 rats. Cultured neurons were used in experiments 2-3 weeks after plating.
# Spontaneous excitatory postsynaptic currents were recorded by the whole-cell variant of the patch clamp technique. The pipet solution usually contained (in mM) KCl 10, EGTA 11, sodium gluconate 3, potassium gluconate 140 and HEPES 10, adjusted to pH 7.2 with KOH. The bath solution contained (in mM) NaCl 150, KCl 4, CaCl2 1, and HEPES 10, adjusted to pH 7.2 with NaOH. Because NMDA-induced currents are subject to voltage-dependent block by extracellular Mg^2+, no magnesium salts were added to the bath solution. All records were made with the cell membrane potential clamped at -70 mV, which is very close to the Cl- equilibrium potential. Therefore, IPSCs are not expected to be observed and spontaneous activity should consist of EPSCs. The complete blockage of spontaneous activity by the co-application of the NMDA receptor antagonist APV and the non-NMDA receptor antagonist DNQX argues that the observed spontaneous activity is glutamate receptor-mediated.
# Drug solutions were applied to single neurons by pressure ejection (15 psi) from 7-barrel pipets (tip opening ~3-5 μm) positioned ~50 μm from the neuronal soma. In all experiments, neurons received a 40s application of either steroid or steroid plus antagonist(s), followed by 10-20s pulse of external buffer solution.
# NMDA receptor = details: Wu et al. 1991, cited from earlier work
smiles,measurement,setting,value
"CC(=O)[C@H]1CC[C@H]2[C@@H]3CC[C@@H]4C[C@H](OC(=O)CCC(=O)O)CC[C@]4(C)[C@H]3CC[C@]12C [5β3αHS, 3α-hydroxy-5β-pregnan-20-one hemisuccinate]","early phase response, formalin paw lick",[1]; 0-5 minutes,no effect on the early response
same,"late phase response, formalin paw lick",[1]; 5-25 minutes,effective in blocking the late phase response
same,animals that survived the 100 mg/kg NMDA challenge,[2],100%
"CC(=O)[C@H]1CC[C@H]2[C@@H]3CC[C@@H]4C[C@H](OS(=O)(=O)O)CC[C@]4(C)[C@H]3CC[C@]12C [5β3αS, 3α-hydroxy-5β-pregnan-20-one sulfate]",inhibition of the 50 μM kainate-induced current,kainate receptors,37% and 37.4±4.7%
same,inhibition of the 25 μM AMPA-induced current,AMPA receptors,29% and 29.0±3.1%
same,effect on spontaneous EPSCs,[3],inhibits spontaneous EPSCs
same,animals that survived the 100 mg/kg NMDA challenge,[2],75%
"CC(=O)C1CCC2C3CC=C4CC(OS(=O)(=O)O)CCC4(C)C3CCC12C (stereo not shown) [PS, pregnenolone sulfate]",potentiation of EPSCs with NMDA receptors blocked,"[3]; 100 μM steroid, APV (40 μM)",reduced
same,effect on spontaneous EPSCs,[3],potentiates spontaneous EPSCs; also recorded: potentiates spontaneous excitatory post-synaptic currents
same,EC50,[3]; listed as pregnenolone sulfate,11.9 µM
same,EC50,[3],5.6 µM
same,potentiation of the NMDA response,NMDA receptor,197%
same,EC50,NMDA receptor; read-out: EC50 for potentiation of the NMDA response,57 µM

# From patent US6083941A, “Inhibition of NMDA receptor activity by pregnenolone sulfate derivatives” (Trustees of Boston University, priority 1998, dated 2000)
